Data: patent publication US9925189B2, “Heterocyclic receptor agonists for the treatment of diabetes and metabolic disorders” (CymaBay Therapeutics, Inc., priority 2006, dated 2018)

These compounds were tested against T1, IC-GPCR2 (Homo sapiens, UniProt Q8TDV5, S309L) (assay: Stimulation of cAMP in CHO cells stably expressing IC-GPCR2 (HTRF cAMP assay)). Conditions: 0.5 h, 30 minutes, IC-GPCR2 stably expressing CHO cells, read-out: Activity at 10 uM (% change in FRET signal from DMSO control).
T1 construct: expressed in transfected cells
T1 sequence (Q8TDV5 1-335 S309L): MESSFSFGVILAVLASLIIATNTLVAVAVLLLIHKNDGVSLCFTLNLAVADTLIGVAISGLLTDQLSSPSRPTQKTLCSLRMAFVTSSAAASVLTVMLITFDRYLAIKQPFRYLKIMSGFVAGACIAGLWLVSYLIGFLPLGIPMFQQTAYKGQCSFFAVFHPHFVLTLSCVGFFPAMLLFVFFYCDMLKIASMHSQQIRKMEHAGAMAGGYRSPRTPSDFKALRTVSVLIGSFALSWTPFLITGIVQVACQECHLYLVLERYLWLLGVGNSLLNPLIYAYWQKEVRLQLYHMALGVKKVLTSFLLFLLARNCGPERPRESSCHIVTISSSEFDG
Type: cell-based
Protocol: This assay was developed using a stable cell line expressing IC-GPCR-2, generated as follows. IC-GPCR2 (SEQ ID NO:1) was cloned into Gateway pDEST 40vector (Invitrogen), using the Gateway cloning system (invitrogen) according to the manufacturer's instructions. A stable cell line was generated by transfecting a 10 cm plate of CHO cells (source) with 8 ug of this construct using Transit-CHO transfection kit (Mirus). CHO cells were plated the day prior to transfection at a density of 3,000,000 cells/plate. Clones were selected using the antibiotic G418 at 500 ug/ml. 23 clones were picked and assayed for the expression of the receptor by measuring changes in intracellular cAMP levels in response to an IC-GPCR2 agonist.
To measure cAMP activity in response to IC-GPCR2 agonist, the clones were plated in 96 well plates at 17500 cells per well. On the day after plating, cells were incubated with the IC-CPCR2 agonist at […] for 30 minutes in Ham's F12 Media (Gibco) with 0.04% DMSO. cAMP was measured using the cAMP dynamic kit from Cis Bio (Bedford, Mass.) according to the manufacturer's instructions. Briefly, cells were lysed, and cAMP levels determined by competitive immunoassay using D2 labeled cAMP, and europium cryptate tagged anti cAMP antibody. When in close proximity, the D2 and europium cryptate undergo fluorescence resonance energy transfer (FRET), which is measured as a fluorescence ratio (665 nm/620 nm). Unlabelled cAMP in the cell lysate competed with the D2 labeled cAMP for the europium crypate labeled antibody. The resulting decrease in FRET signal corresponded to intracellular cAMP levels. Fluorescence was read on a BMG Labtech PHERAstar, software version 1.50.
Compounds were dissolved in 100% DMSO to a concentration of […] to provide stock solutions. To determine activity against IC-GPCR2, compounds were incubated with IC-GPCR2 stably expressing cells (described above), at 6-8 concentrations ranging from 0.00003 to 10 micromolar, in 96 well plates, in 50 ul of Hams F12 media for 30 minutes. Cells were plated at 17500 cells per well 1 day before running the assay. All compounds were also screened against the parental CHO cells. cAMP was measured using the cAMP dynamic kit from Cis Bio (Bedford, Mass.), according to the manufacturer's instructions. Briefly, cells were lysed and cAMP levels determined by competitive immunoassay using D2 labeled cAMP, and europium cryptate tagged anti cAMP antibody. When in close proximity, the D2 and europium cryptate undergo fluorescence resonance energy transfer (FRET), which is measured as a fluorescence ratio (665 nm/620 nm). Unlabelled cAMP in the cell lysate competed with the D2 labeled cAMP for the europium crypate labeled antibody. The resulting decrease in FRET signal corresponded to intracellular cAMP levels.
Activities of compounds disclosed in Table 1 and Table 2 below are expressed as the % change in FRET signal from DMSO control. “*” no activity observed when tested at 10 micromolar but no higher concentrations were tested. NT indicates the compound was not tested at the indicated concentration.

| activation at 10 µM [%] | SMILES |
| --- | --- |
| 21 | CS(=O)(=O)c1ccc(OCc2csc(C3CCN(C(=O)c4cccnc4)CC3)n2)cc1 [Example 40, {4-[4-(4-Methanesulfonyl-phenoxymethyl)-thiazol-2-yl]-piperidin-1-yl}-pyridin-3-yl-methanone] |
| 56 | CCc1cnc(N2CCC(c3nc(COc4ccc(SC(F)(F)F)cc4)cs3)CC2)nc1 [Example 16, 5-Ethyl-2-{4-[4-(4-trifluoromethylsulfanyl-phenoxymethyl)-thiazol-2-yl]-piperidin-1-yl}-pyrimidine] |
| 50 | CC(C)(C)OC(=O)N1CCC(c2nc(COc3ccc(-n4ccnc4)cc3)cs2)CC1 [Example 2, 4-[4-(4-Imidazol-1-yl-phenoxymethyl)-thiazol-2-yl]-piperidine-1-carboxylic acid tert-butyl ester] |
| 49 | CC(C)(C)OC(=O)N1CCC(c2nc(COc3ccc(-n4cnnn4)cc3)cs2)C1 (stereo not drawn) [Example 102, 3-[4-(4-Tetrazol-1-yl-phenoxymethyl)-thiazol-2-yl]-pyrrolidine-1-carboxylic acid tert-butyl ester] |
| 70 | CCc1cnc(N2CCC(c3nc(COc4ccc(-n5nnnc5C)cc4)cs3)CC2)nc1 [Example 12, 5-Ethyl-2-(4-{4-[4-(5-methyl-tetrazol-1-yl)-phenoxymethyl]-thiazol-2-yl}-piperidin-1-yl)-pyrimidine] |
| 88 | O=C(OCCF)N1CCC(c2nc(COc3ccc(-n4cnnn4)cc3)cs2)CC1 [Example 32, 4-[4-(4-Tetrazol-1-yl-phenoxymethyl)-thiazol-2-yl]-piperidine-1-carboxylic acid 2-fluoro-ethyl ester] |
| 57 | COc1ccc(-c2cnc(N3CCC(c4nc(COc5ccc(-n6cnnn6)cc5)cs4)CC3)nc2)cc1 [Example 66, 5-(4-Methoxy-phenyl)-2-{4-[4-(4-tetrazol-1-yl-phenoxymethyl)-thiazol-2-yl]-piperidin-1-yl}-pyrimidine] |
| 76 | CCc1cnc(N2CCC(c3nc(COCc4ccc(S(C)(=O)=O)cc4)cs3)CC2)nc1 [Example 203, 5-Ethyl-2-{4-[4-(4-methanesulfonyl-benzyloxymethyl)-thiazol-2-yl]-piperidin-1-yl}-pyrimidine] |
| 53 | Nc1cnc(N2CCC(c3nc(COc4ccc(-n5cnnn5)cc4)cs3)CC2)nc1 [Example 107, 2-{4-[4-(4-Tetrazol-1-yl-phenoxymethyl)-thiazol-2-yl]-piperidin-1-yl}-pyrimidin-5-ylamine] |

Further lines, the compound ahead of its results:

| SMILES | activation at 10 µM [%] |
| --- | --- |
| Cc1cc(C(=O)O)nc(N2CCC(c3nc(COc4ccc(-n5cnnn5)cc4)cs3)CC2)n1 [Example 176, 6-Methyl-2-{4-[4-(4-tetrazol-1-yl-phenoxymethyl)-thiazol-2-yl]-piperidin-1-yl}-pyrimidine-4-carboxylic acid] | 43 |
| CC(C)(C)OC(=O)N1CCC(c2nc(COc3ccc(-n4cncn4)cc3)cs2)CC1 [Example 5, 4-[4-(4-[1,2,4]Triazol-1-yl-phenoxymethyl)-thiazol-2-yl]-piperidine-1-carboxylic acid tert-butyl ester] | 60 |
| CCN(CC)C(=O)N1CCC(c2nc(COc3ccc(-n4cnnn4)cc3)cs2)CC1 [Example 45, 4-[4-(4-Tetrazol-1-yl-phenoxymethyl)-thiazol-2-yl]-piperidine-1-carboxylic acid diethylamide] | 84 |
| CCNC(=O)N1CCC(c2nc(COc3ccc(-n4cnnn4)cc3)cs2)CC1 [Example 46, 4-[4-(4-Tetrazol-1-yl-phenoxymethyl)-thiazol-2-yl]-piperidine-1-carboxylic acid ethylamide] | 30 |
| CCc1cnc(N2CCC(c3nc(COc4cccc(-n5cnnn5)c4)cs3)CC2)nc1 [Example 11] | 34 |
| CC(C)(C)C(=O)CN1CCC(c2nc(COc3ccc(-n4cnnn4)cc3)cs2)CC1 [Example 151, 3,3-Dimethyl-1-{4-[4-(4-tetrazol-1-yl-phenoxymethyl)-thiazol-2-yl]-piperidin-1-yl}-butan-2-one] | 54 |
| FC(F)(F)c1ccc(N2CCC(c3nc(COc4ccc(-n5cnnn5)cc4)cs3)CC2)nc1 [Example 71, 4-[4-(4-Tetrazol-1-yl-phenoxymethyl)-thiazol-2-yl]-5′-trifluoromethyl-3,4,5,6-tetrahydro-2H-[1,2′]bipyridinyl] | 88 |
| CC(=O)c1ccc(OCc2csc(C3CCN(C(=O)OC(C)(C)C)CC3)n2)c(F)c1 [Example 125, 4-[4-(4-Acetyl-2-fluoro-phenoxymethyl)-thiazol-2-yl]-piperidine-1-carboxylic acid tert-butyl ester] | 78 |
| CCc1cnc(N2CCC(c3nc(COc4c(F)cc(S(C)(=O)=O)cc4F)cs3)CC2)nc1 [Example 189, 2-{4-[4-(2,6-Difluoro-4-methanesulfonyl-phenoxymethyl)-thiazol-2-yl]-piperidin-1-yl}-5-ethyl-pyrimidine] | 76 |
| CC(C)(C)OC(=O)N1CCC(c2nc(COc3c(F)cc(S(C)(=O)=O)cc3F)cs2)CC1 [Example 132, 4-[4-(2,6-Difluoro-4-methanesulfonyl-phenoxymethyl)-thiazol-2-yl]-piperidine-1-carboxylic acid tert-butyl ester] | 70 |
| Clc1cnc(N2CCC(c3nc(COc4ccc(-n5cnnn5)cc4)cs3)CC2)c(Cl)c1 [Example 196, 3′,5′-Dichloro-4-[4-(4-tetrazol-1-yl-phenoxymethyl)-thiazol-2-yl]-3,4,5,6-tetrahydro-2H-[1,2′]bipyridinyl] | 19 |
| FC(F)(F)c1cnc(N2CCC(c3nc(COc4ccc(-n5cnnn5)nc4)cs3)CC2)nc1 [Example 185, 2-{4-[4-(6-Tetrazol-1-yl-pyridin-3-yloxymethyl)-thiazol-2-yl]-piperidin-1-yl}-5-trifluoromethyl-pyrimidine] | 83 |
| O=[N+]([O-])c1cnc(N2CCC(c3nc(COc4ccc(-n5cnnn5)cc4)cs3)CC2)nc1 [Example 192, 5-Nitro-2-{4-[4-(4-tetrazol-1-yl-phenoxymethyl)-thiazol-2-yl]-piperidin-1-yl}-pyrimidine] | 74 |
| CCCCOC(=O)N1CCC(c2nc(COc3ccc(-n4cnnn4)cc3)cs2)CC1 [Example 33, 4-[4-(4-Tetrazol-1-yl-phenoxymethyl)-thiazol-2-yl]-piperidine-1-carboxylic acid butyl ester] | 77 |
| CC(C)(C)OC(=O)N1CCC(c2nc(COc3ccc(-n4cnnn4)cc3)co2)CC1 [Example 121, 4-[4-(4-Tetrazol-1-yl-phenoxymethyl)-oxazol-2-yl]-piperidine-1-carboxylic acid tert-butyl ester] | 75 |
| Fc1cc(-n2cnnn2)ccc1OCc1csc(C2CCN(c3ncc(C(F)(F)F)cc3Cl)CC2)n1 [Example 194, 3′-Chloro-4-[4-(2-fluoro-4-tetrazol-1-yl-phenoxymethyl)-thiazol-2-yl]-5′-trifluoromethyl-3,4,5,6-tetrahydro-2H-[1,2′]bipyridinyl] | 29 |
| CC(C)(C)OC(=O)Nc1ccc(OCc2csc(C3CCN(C(=O)OC(C)(C)C)CC3)n2)cc1 [Example 130, 4-[4-(4-tert-Butoxycarbonylamino-phenoxymethyl)-thiazol-2-yl]-piperidine-1-carboxylic acid tert-butyl ester] | 53 |
| CC(C)(C)OC(=O)N1CCC(c2nc(COc3ccc(SC(F)(F)F)cc3)cs2)CC1 [Example 134, 4-[4-(4-Trifluoromethylsulfanyl-phenoxymethyl)-thiazol-2-yl]-piperidine-1-carboxylic acid tert-butyl ester] | 68 |
